The results in this text go back to patent publication US8785488B2 (Exelixis Patent Company LLC, priority 2009, dated 2014).

One test has as its target T1, h-TGR5 (Homo sapiens, UniProt Q8TDU6).
T1 construct: expressed in transfected cells
T1 sequence (Q8TDU6 1-330): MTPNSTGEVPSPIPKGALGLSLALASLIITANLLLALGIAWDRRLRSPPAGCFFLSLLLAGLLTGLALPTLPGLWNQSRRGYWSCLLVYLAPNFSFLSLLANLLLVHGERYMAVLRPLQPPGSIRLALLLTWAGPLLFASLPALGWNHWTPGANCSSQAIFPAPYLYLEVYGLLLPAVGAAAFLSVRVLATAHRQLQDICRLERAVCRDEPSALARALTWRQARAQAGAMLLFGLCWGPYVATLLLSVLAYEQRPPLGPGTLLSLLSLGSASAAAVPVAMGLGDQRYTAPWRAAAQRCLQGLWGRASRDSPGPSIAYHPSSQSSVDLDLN
In words: TGR5 cAMP Assay using Cisbio cAMP Dynamic2 htrf kit (hTGR5CRE-luc HEK 293 cells). To be noted: h-TGR5 cAMP EC50, Table 1; read-out: cAMP (EC50). Format: cell-based. In short, it runs like this:
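[…], 4000 hTGR5CRE-luc HEK 293 cells per well, with 0.5 mM IBMX and d2-cAMP, were incubated 30 min at room temperature with compounds in 8-point half-log series, in quadruplicate.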

Another test concerns the target T2, human TGR5 (h-TGR5) (Homo sapiens, UniProt Q8TDU6).
T2 construct: expressed in transfected cells
T2 sequence (Q8TDU6 1-330): T1 sequence (Q8TDU6 1-330)
In words: TGR5/CRE-Luciferiase Assay (HEK 293 hTGR5/CRE-Luc cells). It counts as cell-based. To be noted: h-TGR5 CRE-Luc EC50, Table 1; read-out: CRE-Luc (EC50). In short, it runs like this: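 HEK293 cells stably carrying hTGR5 and a CRE-luciferase reporter were exposed to serially diluted compounds (diluted in DMEM with 5% DMSO) for 6 h. Cells were then lysed in luciferase buffer, luminescence was read, and EC50 values were derived from dose-response curves.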

Molecules are shown by their SMILES.

In the case of `COc1cc(-n2c(C(C)(C)c3ccc(F)c(C#N)c3)cnc2SCc2ccc(S(=O)(=O)NC(=O)NN3CCCC3)cc2Cl)ccc1F` [3-chloro-4-[({5-[1-(3-cyano-4-fluorophenyl)-1-methylethyl]-1-[4-fluoro-3-(methyloxy)phenyl]-1H-imidazol-2-yl}thio)methyl]-N-[(pyrrolidin-1-ylamino)carbonyl]benzenesulfonamide], the EC50 at h-TGR5 and at human TGR5 (h-TGR5) was 100 to 1000 nM in each case.

Turning to `COc1cc(-n2c(C(C)(C)c3ccc(Cl)c(Cl)c3)cnc2SCc2c(F)cc(C(=O)NCS(=O)(=O)O)cc2F)ccc1F` [[({4-[({5-[1-(3,4-dichlorophenyl)-1-methylethyl]-1-[4-fluoro-3-(methyloxy)phenyl]-1H-imidazol-2-yl}thio)methyl]-3,5-difIuorophenyl}carbonyl)amino]methanesulfonic acid], the EC50 at h-TGR5 and on human TGR5 (h-TGR5) was less than 100 nM in each case.

As for `COc1cc(C(C)(C)c2cnc(SCc3c(F)cc(OCCCNC(=N)N)cc3Cl)n2-c2ccc(F)cc2)ccc1F` [1-(3-{[3-chloro-5-fluoro-4-({[5-{1-[4-fluoro-3-(methyloxy)phenyl]-1-methylethyl}-1-(4-fluorophenyl)-1H-imidazol-2-yl]thio}methyl)phenyl]oxy}propyl)guanidine], the EC50 at h-TGR5 and at human TGR5 (h-TGR5) was less than 100 nM each time.

Take `COc1cc(-n2c(C(C)(C)c3ccc(Cl)c(Cl)c3)cnc2SCc2c(F)cc(C(=O)O)cc2F)ccc1F` [4-[({5-[1-(3,4-dichlorophenyl)-1-methylethyl]-1-[4-fluoro-3-(methyloxy)phenyl]-1H-imidazol-2-yl}thio)methyl]-3,5-difluorobenzoic acid]: the EC50 at h-TGR5 and at human TGR5 (h-TGR5) was less than 100 nM in each case.

Turning to `CC(C)(c1ccc(Cl)c(Cl)c1)c1cnc(SCc2c(F)cccc2Cl)n1-c1ccc(F)c(F)c1` [2-{[(2-chloro-6-fluorophenyl)methyl]thio}-5-[1-(3,4-dichlorophenyl)-1-methylethyl]-1-(3,4-difluorophenyl)-1H-imidazole], the EC50 on h-TGR5 is 100 to 1000 nM; on human TGR5 (h-TGR5) it was less than 100 nM.

`CC(C)(c1ccc(Cl)c(Cl)c1)c1cnc(SCc2c(F)cccc2Cl)n1-c1ccc(F)cc1` [2-{[(2-chloro-6-fluorophenyl)methyl]thio}-5-[1-(3,4-dichlorophenyl)-1-methylethyl]-1-(4-fluorophenyl)-1H-imidazole]: the figures for the EC50 on h-TGR5 and at human TGR5 (h-TGR5) were 100 to 1000 nM and less than 100 nM, respectively.

In the case of `COc1cc(C(C)(C)c2cnc(SCc3c(F)cc(-c4nnn[nH]4)cc3F)n2-c2ccc(F)cc2)ccc1Cl` [5-[4-({[5-{1-[4-chloro-3-(methyloxy)phenyl]-1-methylethyl}-1-(4-fluorophenyl)-1H-imidazol-2-yl]thio}methyl)-3,5-difluorophenyl]-1H-tetrazole], the EC50 at h-TGR5 and at human TGR5 (h-TGR5) was less than 100 nM in each case.

In the case of `CCOC(=O)NS(=O)(=O)c1ccc(CSc2ncc(C(C)(C)c3ccc(OC)c(Cl)c3)n2-c2ccc(F)cc2)c(Cl)c1` [ethyl {[3-chloro-4-({[5-{1-[3-chloro-4-(methyloxy)phenyl]-1-methylethyl}-1-(4-fluorophenyl)-1H-imidazol-2-yl]thio}methyl)phenyl]sulfonyl}carbamate], the half-maximal effective concentration (EC50) at h-TGR5 and on human TGR5 (h-TGR5) was less than 100 nM throughout.

Consider `CC(C)(c1ccc(Cl)c(Cl)c1)c1cnc(S(=O)(=O)NCc2c(F)cccc2Cl)n1-c1ccc(F)cc1` [N-[(2-chloro-6-fluorophenyl)methyl]-5-[1-(3,4-dichlorophenyl)-1-methylethyl]-1-(4-fluorophenyl)-1H-imidazole-2-sulfonamide], for which the EC50 at h-TGR5 and at human TGR5 (h-TGR5) was 100 to 1000 nM throughout.

On to `COc1cc(C(C)(C)c2cnc(SCc3c(F)cc(C#CCNC(=N)N)cc3F)n2-c2ccc(F)cc2)ccc1Cl` [1-{3-[4-({[5-{1-[4-chloro-3-(methyloxy)phenyl]-1-methylethyl}-1-(4-fluorophenyl)-1H-imidazol-2-yl]thio}methyl)-3,5-difluorophenyl]prop-2-yn-1-yl}guanidine], for which the EC50 on h-TGR5 and at human TGR5 (h-TGR5) was less than 100 nM each time.

A word on the EC50: it is the concentration at which the effect is half-maximal.
